Results from PubChem BioAssay (NCI).
Where “and” joins values, the source holds several entries; their conditions need not be identical. Equal entries are not always repeated.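 Exposure lasted 48 hours, with cells grown in 96-well plates and compounds tested at five concentrations. Here, GI50 denotes the concentration required for 50% inhibition of growth. At the TGI there is no net growth.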

What follows are molecules tested on CCRF-CEM leukemia (assay: NCI-60 cell line screen, 48 h).

Compared with O=C(Nc1ccccc1)c1c(O)[nH]c(=S)[nH]c1=O, Cc1ccc(NC(=O)Nc2ccc(-c3cccnc3)cc2N2CCC(CO)CC2)cc1 is 20-fold lower in GI50: 71.2 µM for the first, 3.57 µM for the second.

Going from CCCCCCCCCCCCCC(=O)OC(/C=C/C(C)C)C(O)C(O)C(OC)C(=O)NC1CCCCN(C)C1=O (stereo not given) to CC(=O)[CH-]C(=O)c1ccccc1.CC(=O)[CH-]C(=O)c1ccccc1.CN(C)c1ccc([O-])cc1.CN(C)c1ccc([O-])cc1.Cl.[Ti+4], the GI50 falls from greater than 49 µM to 9.65 µM.

Compared with CCC[CH2][Sn]([CH2]CCC)([S]c1cccc2cccnc12)[S]c1cccc2cccnc12, Nc1ccccc1C#C/C=C\C#Cc1ccccc1OC(F)(F)F is 32-fold higher in GI50: 0.035 µM for the first, 1.11 µM for the second.

O=C(Nc1ccccc1)c1c(O)[nH]c(=S)[nH]c1=O was tested, and the TGI was 83.3 µM and > 250 µM.
In the case of CCCCCCCCCCCCCC(=O)OC(/C=C/C(C)C)C(O)C(O)C(OC)C(=O)NC1CCCCN(C)C1=O (stereo not given), the TGI is reported as 10.7 µM and > 49 µM.

COC(=O)c1ccccc1NC(=O)C(=O)Cc1nc2c3c(ccc2[nH]c1=O)C(=O)c1ccccc1C3=O and O=C(CC(=O)c1cccc2ccccc12)C(=O)Nc1ccc(Cl)cc1 cannot be ordered by TGI: greater than 100 µM for the first, greater than 100 µM for the second.

Cc1ccc(S(=O)(=O)OC[C@@H]2CO2)cc1 and Cc1cc(N(CCC#N)CCC#N)ccc1N=Nc1ccc(S(N)(=O)=O)cc1 cannot be ordered by TGI: greater than 100 µM for the first, greater than 100 µM for the second.

Compared with COc1cc2cc(OC)c3cc4c(cc3c2c(OC)c1OC)OCO4, Fc1ccc(NC(=S)SCc2ccc3c(c2)OCO3)cc1F is 2-fold higher in TGI: 37.9 µM for the first, 77.3 µM for the second.

CC1(C(=O)O)CCC[C@@]2(C)C1CC[C@@]1(C)c3cocc3CCC21 (stereo not given in full) and CCOC(=O)CCC1(C(=O)OCC)CCCCC1=O (stereo not given) cannot be ordered by TGI: greater than 100 µM for the first, greater than 100 µM for the second.

CCn1c(C)nn2c(=O)c3ccccc3nc2c1=O and Cc1nc2c(ccc3ncccc32)[nH]1 cannot be ordered by TGI: greater than 100 µM for the first, greater than 100 µM for the second.

Going from CCN(CC)CCSc1c2ccccc2nc2cc(NCC(=O)Nc3ccccc3-c3ccccc3NC(=O)CNc3ccc4c(SCCN(CC)CC)c5ccccc5nc4c3)ccc12 to Cc1cc(NS(=O)(=O)c2ccc(Nc3c4ccccc4nc4c(C(=O)N5CCN(CCOS(C)(=O)=O)CC5)cccc34)cc2)no1, the TGI rises from 96.9 µM to greater than 100 µM.

CC(=O)[CH-]C(=O)c1ccccc1.CC(=O)[CH-]C(=O)c1ccccc1.CN(C)c1ccc([O-])cc1.CN(C)c1ccc([O-])cc1.Cl.[Ti+4] and Nc1ccccc1S(=O)(=O)N(CC(=O)O)c1ccccc1 cannot be ordered by TGI: greater than 31.6 µM for the first, greater than 100 µM for the second.

Compared with CC1(C)C(=O)/C=C\C(=O)C(C)(C)C2=CC=C(O2)C(C)(C)C(=O)/C=C\C(=O)C(C)(C)C2=CC=C1O2, CCOC(=O)C(C)(C)Oc1ccc2c(-c3ccccc3)cc(=O)oc2c1 is lower in TGI: greater than 100 µM for the first, 63.5 µM for the second.

NC(=O)NO.O.O.O.O.O.O.O.O.O.O.O.[Ge].[Ge].[Ge].[Ge].[Ge].[O]=[Ge].[O]=[Ge].[O]=[Ge].[O]=[Ge].[O]=[Ge][OH] and COC(=O)/C(C#N)=C1\NC(=O)c2ccccc21 cannot be ordered by TGI: greater than 81.6 µM for the first, greater than 100 µM for the second.

CN(C)C(=S)N=C(Nc1ccccc1)Nc1ccccc1 and NC1=NCCC1(c1ccccc1)c1ccccn1 (stereo not given) cannot be ordered by TGI: greater than 100 µM for the first, greater than 100 µM for the second.

Going from CCC[CH2][Sn]([CH2]CCC)([S]c1cccc2cccnc12)[S]c1cccc2cccnc12 to O=C(O)CCC(NC(=O)c1ccc(Nc2nc3ccccc3nc2-c2cccs2)cc1)C(=O)O (stereo not given), the TGI rises from 0.285 µM to greater than 100 µM.

OCC1=CC(NC2CC(CO)C(O)C(O)C2O)C(O)C(O)C1O (stereo not given) and Cc1ccc(NC(=O)Nc2ccc(-c3cccnc3)cc2N2CCC(CO)CC2)cc1 cannot be ordered by TGI: greater than 100 µM for the first, greater than 100 µM for the second.

Going from CNS(=O)(=O)NNS(=O)(=O)c1ccccc1 to Nc1ccccc1C#C/C=C\C#Cc1ccccc1OC(F)(F)F, the TGI falls from greater than 100 µM to 23.2 µM.

Compared with CNC(=S)OCCC(C)CCCC(C)C (stereo not given), Cc1cnc(NCCCN(C)C)c2c1[nH]c1ccc3cc(O)ccc3c12 is 6.9-fold lower in TGI: 40.7 µM for the first, 5.88 µM for the second.

What follows are molecules tested on MDA-MB-231 breast (assay: NCI-60 cell line screen, 48 h).

First: O=C1/C(=C/c2ccc(O)c(O)c2)CCC/C1=C\c1ccc(O)c(O)c1
Second: Fc1ccc(NC(=S)SCc2ccc3c(c2)OCO3)cc1F
The TGI of the first is lower: 37.4 µM for the first, greater than 100 µM for the second.

Compared with O=C(Nc1ccccc1)c1c(O)[nH]c(=S)[nH]c1=O, Cc1cnc(NCCCN(C)C)c2c1[nH]c1ccc3cc(O)ccc3c12 is 33-fold lower in TGI: 94 µM for the first, 2.83 µM for the second.

Going from Nc1ccccc1C#C/C=C\C#Cc1ccccc1OC(F)(F)F to Cc1ccc(NC(=O)Nc2ccc(-c3cccnc3)cc2N2CCC(CO)CC2)cc1, the TGI rises from 24.7 µM to greater than 100 µM.

Going from Nc1ccccc1C#C/C=C\C#Cc1ccccc1OC(F)(F)F to Cc1ccc(NC(=O)Nc2ccc(-c3cccnc3)cc2N2CCC(CO)CC2)cc1, the GI50 falls from 5.34 µM to 2.42 µM (2.2-fold).

These molecules were tested on SNB-78 CNS (assay: NCI-60 cell line screen, 48 h).

First: O=C1/C(=C/c2ccc(O)c(O)c2)CCC/C1=C\c1ccc(O)c(O)c1
Second: Cc1cnc(NCCCN(C)C)c2c1[nH]c1ccc3cc(O)ccc3c12
The TGI of the first is 2.1-fold higher: 8.19 µM for the first, 3.86 µM for the second.

Cc1c(C(=O)C/C(=N/NC(=O)c2ccccc2O)C(=O)Nc2ccccc2C(C)C)[n+](=O)c2ccccc2n1[O-] and COC(=O)c1ccccc1NC(=O)C(=O)Cc1nc2c3c(ccc2[nH]c1=O)C(=O)c1ccccc1C3=O cannot be ordered by TGI: greater than 100 µM for the first, greater than 100 µM for the second.

Compared with CCCCCCCCCCCC(=O)OCCOCCOCCOCCOCCOCc1ccccc1, CCCCCCCCCCCCCC(=O)OC(/C=C/C(C)C)C(O)C(O)C(OC)C(=O)NC1CCCCN(C)C1=O (stereo not given) is lower in TGI: greater than 100 µM for the first, 14.8 µM for the second.

CCCC1C(=O)CCc2c(OC)ccc(OC)c21 (stereo not given) and COC(=O)C1(C(C)C)CCc2c(OC)ccc(OC)c2C1=O (stereo not given) cannot be ordered by TGI: greater than 100 µM for the first, greater than 100 µM for the second.

O=C(CCc1nc(=S)[nH][nH]1)Nc1cc(Cl)c(Cl)cc1Cl and O=C(CCc1nc(=S)[nH][nH]1)Nc1ccc(Cl)c(Cl)c1 cannot be ordered by TGI: greater than 100 µM for the first, greater than 100 µM for the second.

O=C(Nc1nc2ccc([N+](=O)[O-])cc2s1)C(=O)C(C1OC(=O)c2ccccc21)[N+](=O)[O-] (stereo not given) and O=C(CC(=O)c1cccc2ccccc12)C(=O)Nc1ccc(Cl)cc1 cannot be ordered by TGI: greater than 100 µM for the first, greater than 100 µM for the second.

Cc1ccc(S(=O)(=O)OC[C@@H]2CO2)cc1 and Cc1cc(N(CCC#N)CCC#N)ccc1N=Nc1ccc(S(N)(=O)=O)cc1 cannot be ordered by TGI: greater than 100 µM for the first, greater than 100 µM for the second.

COc1cc2cc(OC)c3cc4c(cc3c2c(OC)c1OC)OCO4 and Cc1cc(NS(=O)(=O)c2ccc(Nc3c4ccccc4nc4c(C(=O)N5CCN(CCOS(C)(=O)=O)CC5)cccc34)cc2)no1 cannot be ordered by TGI: greater than 100 µM for the first, greater than 100 µM for the second.

CC1(C(=O)O)CCC[C@@]2(C)C1CC[C@@]1(C)c3cocc3CCC21 (stereo not given in full) and CCOC(=O)CCC1(C(=O)OCC)CCCCC1=O (stereo not given) cannot be ordered by TGI: greater than 100 µM for the first, greater than 100 µM for the second.

CCn1c(C)nn2c(=O)c3ccccc3nc2c1=O and COC(=O)/C(C#N)=C1\NC(=O)c2ccccc21 cannot be ordered by TGI: greater than 100 µM for the first, greater than 100 µM for the second.

CC1(C)C(=O)/C=C\C(=O)C(C)(C)C2=CC=C(O2)C(C)(C)C(=O)/C=C\C(=O)C(C)(C)C2=CC=C1O2 and O=C(O)CCC(NC(=O)c1ccc(Nc2nc3ccccc3nc2-c2cccs2)cc1)C(=O)O (stereo not given) cannot be ordered by TGI: greater than 100 µM for the first, greater than 100 µM for the second.

Going from NC(=O)NO.O.O.O.O.O.O.O.O.O.O.O.[Ge].[Ge].[Ge].[Ge].[Ge].[O]=[Ge].[O]=[Ge].[O]=[Ge].[O]=[Ge].[O]=[Ge][OH] to CNC(=S)OCCC(C)CCCC(C)C (stereo not given), the TGI falls from greater than 100 µM to 34.5 µM.

CN(C)C(=S)N=C(Nc1ccccc1)Nc1ccccc1 and NC1=NCCC1(c1ccccc1)c1ccccn1 (stereo not given) cannot be ordered by TGI: greater than 100 µM for the first, greater than 100 µM for the second.

CCC[CH2][Sn]([CH2]CCC)([S]c1cccc2cccnc12)[S]c1cccc2cccnc12 was tested, and the TGI was 0.825 µM.

Compared with O=C(Nc1ccccc1)c1c(O)[nH]c(=S)[nH]c1=O, CCC[CH2][Sn]([CH2]CCC)([S]c1cccc2cccnc12)[S]c1cccc2cccnc12 is 480-fold lower in GI50: 97.7 µM for the first, 0.203 µM for the second.

In the case of O=C(Nc1ccccc1)c1c(O)[nH]c(=S)[nH]c1=O, the TGI is reported as 124 µM and > 250 µM.

Each molecule was assayed on HS 578T breast (assay: NCI-60 cell line screen, 48 h).

O=C1/C(=C/c2ccc(O)c(O)c2)CCC/C1=C\c1ccc(O)c(O)c1 and O=C(Nc1ccccc1)c1c(O)[nH]c(=S)[nH]c1=O cannot be ordered by TGI: greater than 39.9 µM for the first, 74.3 µM for the second.

Compared with Nc1ccccc1C#C/C=C\C#Cc1ccccc1OC(F)(F)F, Cc1ccc(NC(=O)Nc2ccc(-c3cccnc3)cc2N2CCC(CO)CC2)cc1 is 3.4-fold lower in TGI: 22 µM for the first, 6.4 µM for the second.

Going from Nc1ccccc1C#C/C=C\C#Cc1ccccc1OC(F)(F)F to Cc1ccc(NC(=O)Nc2ccc(-c3cccnc3)cc2N2CCC(CO)CC2)cc1, the GI50 falls from 4.08 µM to 1.7 µM (2.4-fold).
